# Source: patent publication US20230330093A1, “APPLICATION OF NITROGEN-CONTAINING SATURATED HETEROCYCLIC COMPOUND” (SHANGHAI PHARMACEUTICALS HOLDING CO., LTD., priority 2020, published 2023)
# Read-outs that look alike come from different tables or passages of the source.
# Assay: Plasma pharmacokinetics and bioavailability after intravenous and oral administration
# Assay type: in vivo, cynomolgus monkeys
# Conditions: for Vd/F: read-out: Vss/F
# Method: Cynomolgus monkeys (3/sex/group: weight 3-5 kg, age 5-6 years old) were obtained from SuZhou XiShan ZhongKe Laboratory Animals (Shanghai, China). Animals were housed for a 7-day acclimation period before study. The monkeys were individually caged in a controlled temperature (18-26° C.) and humidity (50±20%) animal room with an air flow of 10 plus air changes per hour with fresh air. The lighting cycle was 12 h on and 12 h off, and the monkeys were fed once a day in the morning. All animal experiments were performed in accordance with the Animal Care and Use Guidelines set by the AMMS Animal Care and Use Committee.
# The compound of Formula I was intravenously or orally administered to cynomolgus monkeys fasted overnight. The doses were 1 mg/kg (intravenous), 1 mg/kg, 3 mg/kg, and 9 mg/kg (oral). Blood samples were collected from a limb vein at 0, 5, and 15 min and at […], 0.5, 1, 2, 3, 4, 6, 8, 12, and 24 h (0.2 mL for each time point) after administration. All blood samples were centrifuged immediately after collection at 10,000×g for 5 min and the plasmas were stored at −75±10° C. until analysis. Plasma samples were prepared by protein precipitation. The concentrations of the compound of Formula I in plasma were determined by the validated liquid chromatography-tandem mass spectrometry method.
# The pharmacokinetic parameters such as the area under the plasma concentration-time curve (AUC), maximum plasma concentration (Cmax), time to reach Cmax (Tmax), half-life (T1/2), total body plasma clearance (CL), mean residence time (MRT) and volume of distribution at steady state (Vss) were calculated by non-compartmental analysis with WinNonlin v1.3 (Pharsight, Mountain View, CA, USA). For allometric scaling, animal pharmacokinetic data were simulated by a two-compartment model with the Kinetica 5.1 software package (v.3.0; InnaPhase, Philadelphia, PA, USA).
# [1] = both sexes, cynomolgus monkey, plasma, Monkey, 1 mg/kg iv
# [2] = both sexes, cynomolgus monkey, plasma, Monkey, 1 mg/kg po
# [3] = both sexes, cynomolgus monkey, plasma, Monkey, 3 mg/kg po
# [4] = both sexes, cynomolgus monkey, plasma, Monkey, 9 mg/kg po
# [5] = both sexes, cynomolgus, cynomolgus monkey, plasma, Monkey, 3 mg/kg po
# [6] = both sexes, cynomolgus, cynomolgus monkey, plasma, Monkey, 9 mg/kg po
structure (smiles),measurement,setting,value
COC(=O)NCCCn1nc([C@@H](C)N(C(=O)[C@H]2CNCCO2)C2CC2)c2ccc(C)nc21 [compound of Formula I],F,"Monkey, 1 mg/kg po",3.3%
same,F,"Monkey, 3 mg/kg po",8.0%
same,F,"Monkey, 9 mg/kg po",11.3%
same,half-life,"both sexes, cynomolgus monkey, plasma, iv, 1 mg/kg, Monkey, 1 mg/kg iv",2.73 h
same,half-life,"both sexes, cynomolgus monkey, plasma, po, 1 mg/kg, Monkey, 1 mg/kg po",2.9 h
same,half-life,"both sexes, cynomolgus monkey, plasma, po, 9 mg/kg, Monkey, 9 mg/kg po",5.99 h
same,half-life,"both sexes, cynomolgus monkey, plasma, po, 9 mg/kg, oral 1, 3, 9 mg/kg, monkey plasma",2.73 to 5.99 h
same,AUC,[1],421 ng·h/mL
same,Cmax,[1],466 ng/mL
same,MRT,[1],0.97 h
same,Vd,"both sexes, cynomolgus monkey, plasma, Monkey, 1 mg/kg iv, read-out: Vss",1.86 L/kg
same,AUC,[2],11.8 ng·h/mL
same,CL/F,[2],1410 mL/min/kg
same,Cmax,[2],3.99 ng/mL
same,MRT,[2],4.32 h
same,Tmax,[2],1 h
same,Vd/F,[2],366 L/kg
same,CL/F,[3],503 mL/min/kg
same,Vd/F,[3],104 L/kg
same,AUC,[4],426 ng·h/mL
same,Cmax,[4],263 ng/mL
same,MRT,[4],2.62 h
same,Tmax,[4],1 h
same,clearance,"both sexes, cynomolgus monkey, plasma, intravenous 1 mg/kg, monkeys",32.7 mL/min/kg
same,bioavailability,"both sexes, cynomolgus monkey, plasma, monkeys, calculated from AUC0-24h after iv and po administration",3.3 to 11.3%
same,half-life,"both sexes, cynomolgus, cynomolgus monkey, plasma, po, 3 mg/kg, Monkey, 3 mg/kg po",3.68 h
same,AUC,[5],99.4 ng·h/mL
same,Cmax,[5],42.2 ng/mL
same,MRT,[5],3.46 h
same,Tmax,[5],1.3 h
same,CL/F,[6],353 mL/min/kg
same,Vd/F,[6],55.5 L/kg
same,distribution volume,"intravenous 1 mg/kg, monkeys",1.86 L/kg
